Paper PMC5641120, “Small-molecule inhibitors of PD-1/PD-L1 immune checkpoint alleviate the PD-L1-induced exhaustion of T-cells” (Oncotarget, 2017)
Blank lines part the entries; values can stand above or below the compound they belong to.

Assays:
[1] = target: T1, human PD-L1 (Homo sapiens, UniProt Q9NZQ7); assay: 1H-15N HMQC NMR titration of PD-L1; format: binding; conditions: 15N labeled PD-L1, line broadening upon compound addition
T1 construct: human PD-L1 (residues 18–134, C-terminal His-tag); His-tag (C); made in house
Protocol: Based on the two recent Bristol-Myers Squibb patents, the selection of the BMS compounds was done to obtain high diversity of the chemical structures along all modifications of distal, flexible moieties exposed to the solvent (Figure 1A). The compounds were synthesized as described previously with modifications. All compounds were tested for the interaction with PD-L1 using the ^1H-^15N HMQC NMR titration experiment with positive results, as reported elsewhere and in this manuscript (see below). In order to verify the blockade of the PD-1/PD-L1 interaction by the compounds an NMR-based AIDA was performed. Upon the PD-L1 binding the broadening of ^1H-^15N resonance signals of the ^15N labeled PD-1 is observed due to an increased transverse relaxation rate of the higher molecular weight entities. […] All the compounds efficiently disrupted the complex formed by human PD-1 and PD-L1 proteins, as visualized by the restoration of narrow ^1H-^15N signals of PD-1 ([26] and (Figure 1B)).
For further compound development it is of high importance to define the minimal fragments essential for the binding to the target protein. For this, BMS-1166 and its fragments were tested for interaction with PD-L1 using NMR method. From the six decomposition fragments tested, four retained PD-L1 binding potential (Figure 5).
Uniform ^15N labelling was obtained by expressing proteins in the M9 minimal medium containing ^15NH4Cl as the sole nitrogen source. For NMR measurements the buffer was exchanged by gel filtration to PBS pH 7.4 (PD-L1) or 25 mM sodium phosphate containing 100 mM NaCl pH 6.4 (PD-1). 10% (v/v) of D2O was added to the samples to provide the lock signal. All spectra were recorded at 300K using a Bruker Avance III 600 MHz spectrometer. The interaction of the compounds with PD-L1 was evaluated by monitoring the perturbations in chemical shifts of NMR resonances in the ^1H-^15N 2D HMQC upon titration with the compound. The ability of tested compounds to dissociate PD-L1/PD-1 was evaluated using the Antagonist Induced Dissociation Assay (AIDA). In brief, ^15N-labeled PD-1 (0.2 mM) was slightly overtitrated with the unlabeled PD-L1. The compounds were aliquoted into the resulting mixture. During the experiment the ^1H-^15N signals were monitored by the HMQC.

[2] = target: PD-1/PD-L1 immune checkpoint; assay: PD1/PD-L1 checkpoint assay (ECs co-cultured with aAPCs, NFAT-luciferase reporter); format: cell-based, human; conditions: for EC50: Hill fit of luciferase activity, 6 h co-culture of ECs and aAPCs; for RLUmax (maximal relative luminescence): Hill fit, luminescence normalized to DMSO-treated controls; for effect on luciferase reporter expression (in words): ECs co-cultured with aAPCs
Source text: A T lymphocyte-like cell line (Jurkat) modified to constitutively express PD-1 and carrying a luciferase reporter gene driven by TCR-inducible NFAT response element (Effector Cells, ECs) was used in T cell activation experiments. When antigen-presenting surrogate CHO cells, constitutively expressing the TCR agonist and PD-L1 (aAPCs) are presented to these ECs in co-culture, TCR signaling is repressed by PD-1 and the reporter remains silenced. Agents efficiently interfering with the PD-1/PD-L1 interaction activate the expression of the reporter gene resulting in the increase in luminescence intensity.
To verify the potency of BMS compounds in the inhibition of the PD-1/PD-L1 interactions, a cell-based model of the PD-1/PD-L1 immune checkpoint blockade was used. In the assay, two model cell lines are utilized: the artificial Antigen-Presenting Cells (PD-L1^+ aAPC/CHO-K1 cells, called aAPCs) overexpressing TCR ligand and PD-L1, and T cell surrogate, a modified Jurkat T cell line overexpressing PD-1 and carrying a luciferase reporter under the control of NFAT promoter (PD-1 Effector Cells, called ECs) [30]. […] Additionally, the cells were propagated in a constant presence of Hygromycin B (50 μg/ml) and G418 (250 μg/ml) to provide a stable expression of the introduced genetic constructs. The two latter antibiotics were omitted in the experiments. Overexpression of PD-1 on ECs and PD-L1 on aAPCs was verified by flow cytometry (not shown) and the presence of the luciferase-expressing gene was verified by monitoring luciferase activity following anti-CD3 antibody stimulation. Antibiotic selection, flow cytometry and reporter expression served as cell line authentication method. The cells were periodically tested and found negative for Mycoplasma contamination using PCR-based method [31].
The aAPCs were seeded in white 96-well plates at the density of 10 000 per well in the culture medium 24 h prior to the assay. […] By this, the concentration of DMSO was kept constant in all samples. 95 μl of the medium was removed from the wells and the cells were overlaid with 40 μl of the compound dilutions. […] Following 6 h incubation at 37°C, the plates were equilibrated at room temperature for 10 min and 80 μl of the Bio-Glo reagent (Promega) was added to each well. After incubation for 10 min, luminescence was quantified using FlexStation 3 (Molecular Devices). Half maximal effective concentrations (EC50) and maximal luminescence values (RLUmax) were determined by fitting the Hill equation to the experimental data.

[3] = target: T2, sPD-L1 interaction with PD-1 receptor exposed at the cell surface (Homo sapiens, UniProt Q9NZQ7); assay: Flow cytometry binding of fluorescently labeled sPD-L1 (PD-L1-Atto) to PD-1 expressing cells; format: cell-based; conditions: PD-L1-Atto 1.5 μM pre-incubated with 1 μM BMS compound or 125 μg/ml antibody
T2 construct: made in house; PD-1 stably overexpressed on Jurkat PD-1 Effector Cells from Promega
Protocol: To test if the observed effect of BMS compounds was directly associated with the decreased sPD-L1 recruitment to the cell surface of the PD-1-expressing cells, a His-tagged sPD-L1 was labeled with the Ni-NTA-conjugated fluorescent dye and flow cytometry analysis was performed. When ECs were contacted with labeled sPD-L1, a clear staining was observed (Figure 3B).
Binding of sPD-L1 (aa 18–134) to ECs was evaluated by flow cytometry. The His-tagged PD-L1 protein or its mutants were stained with NTA-Atto 647 N fluorescent dye (Sigma Aldrich) for 2 h at 22°C, at 8:1 molar ratio (protein:dye). PD-L1-Atto was formulated in 150 μl PBS with the tested compounds or antibodies. The samples were incubated for 30 min at 4°C in the dark. Meanwhile, ECs were centrifuged, washed with PBS and suspended in fresh PBS at concentration of 1 × 10^6 cells per ml. 50 μl of ECs was added to each sample and incubated on ice for additional 60 min. The final concentrations of the components were: 25 μg/ml of PD-L1 (1.5 μM), 125 μg/ml the anti-PD-L1 antibodies and control antibodies and 1 μM of the BMS compounds. The samples were analyzed using the BD FACS Verse flow cytometer and BD FACSuite v1.0.6 software.

[4] = target: T1, human PD-L1; design: method as in PMID 27083005; conditions: shown previously; cited from earlier work
[5] = target: T3, human PD-1/PD-L1 complex (Homo sapiens, UniProt Q9NZQ7); design: method as in PMID 27083005; conditions: shown previously; cited from earlier work
T3 construct: human PD-L1 (residues 18–134, C-terminal His-tag); His-tag (C); made in house

[6] = test system: PD-1 Effector Cells (modified Jurkat T cells, ECs); assay: Cytotoxicity (metabolic activity assay) against PD-1 Effector Cells; conditions: ECs, 48 h treatment, metabolic activity assay
Protocol: (§2) To define the maximum admissible concentrations of BMS compounds for the use in the cell-based assays, the toxicity of the compounds was evaluated with the use of metabolic activity assay. For this, modified Jurkat T cells (ECs) used in all further assays were exposed to the increasing concentration of the tested compounds for 48 h.
(§3) Figure 2 Cytotoxicity and activity of BMS compounds in PD-1/PD-L1 checkpoint assay (A) Cytotoxicity of BMS compounds against the PD-1 Effector Cells was tested using metabolic activity assay following the 48 h treatment of the cells with the indicated compounds. […] The graphs present relative luminescence normalized to the DMSO-treated controls and are representative of the three independent experiments. (D) The result of the fitting of Hill model to experimental data presented on panels B and C. EC50 values represent half maximal effective concentrations, and RLUmax values represent maximal relative luminescence values, and illustrate the potency of the listed molecules in restoring the activity of ECs in the assay.
(§4) 5 000 ECs were seeded on transparent 96-well plates and cultured for 48 h in the presence of increasing concentrations of the BMS compounds or DMSO as a control (the concentration of DMSO was kept constant in all samples). Following the treatment, a metabolic activity test was performed with the use of Biolog Redox Dye Mix MB (BioLog), according to the manufacturer's instructions.

[7] = test system: PD-L1 aAPC/CHO-K1 cells (aAPCs); assay: Toxicity towards aAPCs; format: cell-based; conditions: modified CHO-K1 cells (aAPCs), 48 h treatment
[8] = test system: PD-1/sPD-L1; assay: PD-1/sPD-L1 effector assay (anti-CD3 activated ECs, luciferase); format: cell-based, human; conditions: anti-CD3, sPD-L1 0.6 μM, BMS compounds 0.12-3 μM; highest concentrations = 2- and 5-fold molar excess over sPD-L1; 24 h
Protocol: To evaluate the potential of BMS compounds in abrogating the inhibitory effect of sPD-L1 on the activation of T cells, sPD-L1 was pre-incubated with tested compounds and presented to ECs together with the anti-CD3-activating antibody.
For the evaluation of the BMS impact on T cell inhibition by soluble PD-L1, the ECs were stimulated with the anti-CD3 antibody in the presence of the recombinant human sPD-L1. For this, the 96-well white flat bottom plates were coated overnight at 4°C with 5 μg/ml of the anti-CD3 antibody or the isotype control solution in PBS. […] Then, 15 μl of the solution was added to each well of the antibody-coated plate. ECs were centrifuged and diluted to 50 000 per ml, and 60 μl of the cell solution was added to each well. The final concentration of sPD-L1 was 10 μg/ml (0.6 μM). The final concentrations of the BMS compounds were: 0.12, 0.3, 1.2 and 3 μM, giving the following BMS:sPD-L1 molar ratios: 1:5, 1:2, 2:1 and 5:1. The cells were cultured for 24 h and the luciferase activity assay was performed using the Bio-Glo Luciferase Assay System (Promega) according to the manufacturer's instructions.

[9] = target: T4, sPD-L1 (Homo sapiens, UniProt Q9NZQ7); assay: BS3 cross-linking experiment (SDS-PAGE); conditions: hPD-L1 10 μM, compound 1:1 molar ratio
T4 construct: human PD-L1 (residues 18–134, C-terminal His-tag); His-tag (C); made in house
Protocol: (§1) The formation of solution-stable PD-L1 dimers in the presence of BMS compounds was characterized previously for BMS-202 [26]. The crystal structures of BMS-1001 and −1166 bound to PD-L1 indicated similar properties of the compounds, but this required verification by in-solution assays. […] This was verified by a crosslinking experiment. sPD-L1 preincubated in the presence of a cross-linking agent (bis(sulfosuccinimidyl)suberate, BS3) migrated in SDS-PAGE as a single band corresponding to […] protein.
hPD-L1 was concentrated to 10 μM in PBS pH 7.4 and mixed with BMS-1001 or BMS-1166 in the 1:1 molar ratio, followed by the addition of the BS3 cross-linking reagent at 0.25, 0.5 or 1mM final concentration (Thermo Scientific). After 30-min incubation at room temperature, the reaction was quenched by the addition of Tris pH 7.5 to the final concentration of 25 mM. Control sample contained hPD-L1 and 1 mM BS3 reagent. The samples were analyzed by SDS-PAGE.

[10] = target: T4, sPD-L1; assay: Complex analysis by gel filtration (size exclusion chromatography); conditions: inhibitor:protein 3:1 molar ratio
Protocol: as §1
Superdex S75 10/30 HR column was equilibrated with 10 mM Tris pH 8.0 containing 20 mM NaCl. The column was calibrated with globular protein standards. The retention time of hPD-L1 (4 mg/ml) was determined. hPD-L1/inhibitor complexes were formed at 3:1 (inhibitor:protein) molar ratio, incubated for 15 min at room temperature and clarified by centrifugation for 10 min at 15 000 × g. The samples were analyzed in the same manner as the apo-hPD-L1.

[11] = Cytotoxicity (metabolic activity assay) against PD-1 Effector Cells; conditions: human, PD-1 Effector Cells (modified Jurkat T cells, ECs)
Protocol: as §2, §3, §4

T2 sequence (Q9NZQ7 18-134): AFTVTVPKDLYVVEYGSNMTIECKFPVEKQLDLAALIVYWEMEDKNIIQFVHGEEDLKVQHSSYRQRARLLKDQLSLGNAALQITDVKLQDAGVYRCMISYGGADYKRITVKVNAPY
T1 sequence (Q9NZQ7 18-134): as above
T4 sequence (Q9NZQ7 18-134): as above
T3 sequence (Q9NZQ7 18-134, one chain of several): as the sequence (Q9NZQ7 18-134) above

- interaction with PD-L1 (1H-15N HMQC NMR) [1]: active
Compound: Cc1c(CO)cccc1-c1ccc2c(c1)OCCO2 [compound 4]

- EC50 [2]: 0.00042 ± 4.9e-05 µM
- RLUmax (maximal relative luminescence) [2]: 2.72 ± 0.02
- staining of ECs by labeled sPD-L1 (in words) [3]: significantly decreased the staining
Compound: atezolizumab: anti-PD-L1 antibody

- interaction with PD-L1 (1H-15N HMQC NMR) [1]: not-active
Compound: Cc1cccc(CBr)c1C [compound 6]

Compound: Cc1c(COc2ccc(CN3CCCCC3C(=O)O)cc2Br)cccc1-c1ccccc1 (stereo not drawn) [BMS-8]
- binding to PD-L1 [4]: bind to PD-L1
- dissociation of human PD-1/PD-L1 complex in vitro [5]: efficiently dissociate the human PD-1/PD-L1 complex
- toxicity (in words) [6]: moderate toxicity

- EC50 ([2]; Homo sapiens): 0.253 ± 0.12 µM
- restoration of sPD-L1-suppressed activation of ECs (in words) [8]: completely restored cell activation
- interaction with PD-L1 (1H-15N HMQC NMR) [1]: induced linewidth broadening
- sPD-L1 retention time in size exclusion chromatography [10]: significantly shortened
Compound: Cc1cc(CN[C@H](CO)C(=O)O)c(OCc2cccc(C#N)c2)cc1OCc1cccc(-c2ccc3c(c2)OCCO3)c1C [BMS-1001]
- toxicity (in words) [7]: Low toxicity
- effect on luciferase reporter expression (in words) [2]: dose-dependently induced the activity of luciferase
- RLUmax (maximal relative luminescence) [2]: 1.88 ± 0.16
- staining of ECs by labeled sPD-L1 (in words) [3]: significantly decreased the intensity of staining
- sPD-L1 dimer formation by cross-linking (SDS-PAGE) [9]: two bands in SDS-PAGE analysis, corresponding to sPD-L1 monomer and a dimer
- EC50 at 48 h [11]: 33.4 µM

- effect on luciferase reporter expression (in words) [2]: did not affect the reporter expression
Compound: Cc1c(COc2cc(F)c(CNC[C@@H](O)CC(=O)O)cc2F)cccc1-c1ccc2c(c1)OCCO2 [BMS-200]
- toxicity (in words) [6]: moderate toxicity

Compound: c1ccc2c(c1)OCCO2 [compound 5]
- interaction with PD-L1 (1H-15N HMQC NMR) [1]: not-active

Compound: COc1cc(OCc2cccc(-c3ccccc3)c2C)cc(OC)c1CN[C@@H](CO)C(C)C [BMS-242]
- restoration of sPD-L1-suppressed activation of ECs (in words) [8]: unspecific decrease in the readout level
- EC50 at 48 h [11]: 3 to 6 µM

- EC50 [2]: 0.000333 ± 6.8e-05 µM
- RLUmax (maximal relative luminescence) [2]: 2.94 ± 0.08
- staining of ECs by labeled sPD-L1 (in words) [3]: significantly decreased the staining
Compound: durvalumab: anti-PD-L1 antibody

- interaction with PD-L1 (1H-15N HMQC NMR) [1]: active
Compound: Cc1c(COc2cc(OCc3cccc(C#N)c3)c(C=O)cc2Cl)cccc1-c1ccc2c(c1)OCCO2 [compound 2]

Compound: Cc1c(COc2cc(OCc3cccc(C#N)c3)c(CN3C[C@H](O)C[C@@H]3C(=O)O)cc2Cl)cccc1-c1ccc2c(c1)OCCO2 [BMS-1166]
- toxicity (in words) [7]: Low toxicity
- effect on luciferase reporter expression (in words) [2]: dose-dependently induced the activity of luciferase
- RLUmax (maximal relative luminescence) [2]: 1.72 ± 0.03
- EC50 ([2]; Homo sapiens): 0.276 ± 0.029 µM
- staining of ECs by labeled sPD-L1 (in words) [3]: significantly decreased the intensity of staining
- interaction with PD-L1 (1H-15N HMQC NMR) [1]: induced linewidth broadening
- interaction with PD-L1 (1H-15N HMQC NMR) ([1]; listed as 1): active

- restoration of sPD-L1-suppressed activation of ECs (in words) [8]: abrogated the effect of sPD-L1
Compound: nivolumab: anti-PD-1 antibody

- interaction with PD-L1 (1H-15N HMQC NMR) [1]: active
Compound: Cc1c(COc2cc(O)c(C=O)cc2Cl)cccc1-c1ccc2c(c1)OCCO2 [compound 3]
